According to patent US20250145715A1, “B7-H3 TARGETING FUSION PROTEINS AND METHODS OF USE THEREOF” (GT Biopharma, Inc., priority 2021, published 2025):
“Also recorded” adds a separate entry of the source.

Key:
Assay type in all cases: cell-based, human
[1] = tested on: HNSCC cells (Cal27, Cal33); experiment: IncuCyte 2D and 3D spheroid killing of HNSCC; conditions: 2D and 3D IncuCyte; E:T 5:1, 3 nM; irrespective of FANCA gene; vs B7-H3 single domain or IL-15 alone
Method: FIGS. 28A-28F illustrate real-time imaging assays. FIG. 28A is a graph showing Nuclight red-labeled Cal27 survival after incubation with NK cells at an E:T of 5:1 in different conditions: no treatment or 3 nM IL-15, B7-H3 SD and B7-H3 TriKE for 48 hours in an IncuCyte Zoom imager. […] FIG. 28C is a graph illustrating the size of the spheroid in FIG. 28B. FIG. 28D is a graph showing Nuclight red-labeled Cal33 survival after incubation with NK cells at an E:T of 5:1 in different conditions: no treatment or 3 nM IL-15, B7-H3 SD and B7-H3 TriKE for 48 hours in an IncuCyte Zoom imager. […] FIG. 28F is a graph illustrating the size of the spheroid in FIG. 28E.
NK cell responses against HNSCC lines in the presence of the B7-H3 TriKE were assessed through either flow cytometry based functional assays, to evaluate NK cell degranulation and cytokine secretion, or IncuCyte imaging assays, to directly assess target killing. […]
Enriched NK cells (N=4) were incubated with Nuclight red-labeled Cal27 at an E:T of 5:1 in different conditions: no treatment or 3 nM IL-15, B7-H3 SD and B7-H3 TriKE for 48 hours in an IncuCyte Zoom imager. Quantifications of percent live cells were done by normalizing hourly counts of red cells to targets alone at t=0. […] Quantifications of percent average red object area (live cells) were done by normalizing hourly counts of average red object area to targets alone at t=0. […]

[2] = tested on: DU145 prostate cancer cells; experiment: NK cell CD107a / IFNγ flow cytometry against DU145; conditions: normal donor and prostate cancer patient NK cells, vs controls
Source text: FIG. 15A is a graph showing pooled analysis of proportion of NK cells from healthy donors or prostate cancer patients expressing CD107a+ (top) or IFNγ (bottom) against C4-2 targets (N=9 for healthy donors, N=3 for patients). FIG. 15B is a graph showing pooled analysis of proportion of NK cells from healthy donors or prostate cancer patients expressing CD107a+ (top) or IFNγ (bottom) against DU145 targets (N=9 for healthy donors, N=3 for patients). FIG. 15C is a graph showing pooled analysis of proportion of NK cells from healthy donors or prostate cancer patients expressing CD107a+ (top) or IFNγ (bottom) against LNCaP targets (N=9 for healthy donors, N=3 for patients). FIG. 15D is a graph showing pooled analysis of proportion of NK cells from healthy donors or prostate cancer patients expressing CD107a+ (top) or IFNγ (bottom) against PC3 targets (N=9 for healthy donors, N=3 for patients). * p<0.05, ** p<0.01, *** p<0.001, and **** p<0.0001.
ADCC was measured in a flow cytometry assay by evaluating degranulation via CD107a (lysosomal-associated membrane protein LAMP-1) and intracellular IFNγ production. Upon thawing, normal donor and patient-derived PBMCs or ascites cells were rested overnight (37° C., 5% CO2) in RPMI 1640 media supplemented with 10% fetal calf serum (RPMI-10). […] Samples were washed and evaluated in an LSRII flow cytometer (BD Biosciences, San Jose, CA, USA). […]

[3] = tested on: NCI-H460 large cell lung cancer cells; experiment: NK cell CD107a / IFNγ flow cytometry against NCI-H460; conditions: normal donor and lung cancer patient samples, vs controls
Source text: FIGS. 24A-24F illustrate that B7-H3 TriKE enhances NK cell function against lung tumor targets. FIG. 24A is a graph showing pooled analysis of proportion of NK cells from healthy donors expressing CD107a+ against A549(N=6) tumor targets. FIG. 24B is a graph showing pooled analysis of proportion of NK cells from healthy donors expressing IFNγ against A549(N=6) tumor targets. FIG. 24C is a graph showing pooled analysis of proportion of NK cells from healthy donors expressing CD107a+ against NCI-H322 (N=5) tumor targets. FIG. 24D is a graph showing pooled analysis of proportion of NK cells from healthy donors expressing IFNγ against NCI-H322 (N=5) tumor targets. FIG. 24E is a graph showing pooled proportion of NK cells from healthy donors (black bars) or lung cancer patients (white bars) expressing CD107a+ against NCI-H460 (N=7). FIG. 24F is a graph showing pooled proportion of NK cells from healthy donors (black bars) or lung cancer patients (white bars) expressing IFNγ against NCI-H460 (N=7). ** p<0.01, *** p<0.001, and **** p<0.0001.
ADCC was measured in a flow cytometry assay by evaluating degranulation via CD107a (lysosomal-associated membrane protein LAMP-1) and intracellular IFNγ production. […] Samples were washed and evaluated in an LSRII flow cytometer (BD Biosciences, San Jose, CA, USA). […]

## B7-H3 TriKE: camelid nanobodies targeting CD16 and B7-H3 joined by IL-15 and two linkers; sequence table equates the name with cam1615B7-H3
[1]
  HNSCC target cell killing by NK cells: more HNSCC target cell killing; also recorded: induced NK cell killing against HNSCC

## cam1615B7-H3: second-generation TriKE: humanized camelid anti-CD16 VHH, human wild-type IL-15, anti-B7-H3 mAb 376.96 scFv; SEQ ID NO:1
[2]
  NK cell IFNγ production against DU145: enhanced
  NK cell degranulation (CD107a) against DU145: enhanced
[3]
  NK cell function against NCI-H460: strongly increased NK cell function
